According to ChEMBL document CHEMBL3885861, “Open TG-GATES”:

Species: Rattus norvegicus
Assay: Open TG-GATES - Regimen: Single
Assay type: toxicity, organism-based, Sprague-Dawley
Design: regimen Single, gender Male, age 6 weeks
Conditions: in vivo, po, 100 mg/kg, route gavage, dose level High; for Bas / Eos / Hb / Ht / Lym / MCH / MCHC / MCV / Mono / Neu / Plat / RBC / Ret / WBC: tissue Blood; for KIDNEY_L / KIDNEY_R / KIDNEY_TOTAL: tissue Kidney; for LIVER: tissue Liver; for A/G / ALP / ALT / AST / BUN / CRE / Ca / Cl / DBIL / GLC / IP / K / LDH / Na / PL / RALB / TBIL / TC / TG / TP / gamma-GTP: tissue Plasma

Compound: Cc1ccc2cc3c(ccc4ccccc43)c3c2c1CC3 [3-METHYLCHOLANTHRENE]
- TERMINAL_BW (3 h): 211 g
- Bas (3 h): 0%
- Eos (3 h): 1%
- Hb (3 h): 12.4 g/dL
- Ht (3 h): 38.7%
- Lym (3 h): 74.4%
- MCH (3 h): 20.1 pg
- MCHC (3 h): 32.2%
- MCV (3 h): 62.6 fL
- Mono (3 h): 3.2%
- Neu (3 h): 21%
- Plat (3 h): 125.2 x10_4/uL
- RBC (3 h): 618.4 x10_4/ul
- Ret (3 h): 9.2%
- WBC (3 h): 117.6 x10_2/uL
- KIDNEY_L (3 h): 0.9 g
- KIDNEY_R (3 h): 0.9 g
- KIDNEY_TOTAL (3 h): 1.8 g
- LIVER (3 h): 9.5 g
- A/G (3 h): 1
- ALP (3 h): 1507 IU/L
- ALT (3 h): 44.4 IU/L
- AST (3 h): 77.4 IU/L
- BUN (3 h): 12.9 mg/dL
- CRE (3 h): 0.1 mg/dL
- Ca (3 h): 10.8 mg/dL
- Cl (3 h): 101.9 meq/L
- DBIL (3 h): 0.002 mg/dL
- GLC (3 h): 180.4 mg/dL
- IP (3 h): 8.7 mg/dL
- K (3 h): 4.3 meq/L
- LDH (3 h): 276.8 IU/L
- Na (3 h): 139.4 meq/L
- PL (3 h): 178.2 mg/dL
- RALB (3 h): 2.9 g/dL
- TBIL (3 h): 0.012 mg/dL
- TC (3 h): 89.8 mg/dL
- TG (3 h): 164.2 mg/dL
- TP (3 h): 5.7 g/dL
- gamma-GTP (3 h): 0.7 IU/L
- TERMINAL_BW (6 h): 206.7 g
- Bas (6 h): 0%
- Eos (6 h): 0.2%
- Hb (6 h): 12.6 g/dL
- Ht (6 h): 38.9%
- Lym (6 h): 75.6%
- MCH (6 h): 20.6 pg
- MCHC (6 h): 32.4%
- MCV (6 h): 63.6 fL
- Mono (6 h): 4.2%
- Neu (6 h): 18.8%
- Plat (6 h): 136.5 x10_4/uL
- RBC (6 h): 612 x10_4/ul
- Ret (6 h): 9%
- WBC (6 h): 135.9 x10_2/uL
- KIDNEY_L (6 h): 0.9 g
- KIDNEY_R (6 h): 0.9 g
- KIDNEY_TOTAL (6 h): 1.7 g
- LIVER (6 h): 8.9 g
- A/G (6 h): 1
- ALP (6 h): 1605.4 IU/L
- ALT (6 h): 37.2 IU/L
- AST (6 h): 71.4 IU/L
- BUN (6 h): 8.3 mg/dL
- CRE (6 h): 0.1 mg/dL
- Ca (6 h): 10.6 mg/dL
- Cl (6 h): 104.8 meq/L
- DBIL (6 h): 0.002 mg/dL
- GLC (6 h): 175.4 mg/dL
- IP (6 h): 9.2 mg/dL
- K (6 h): 4.3 meq/L
- LDH (6 h): 203.2 IU/L
- Na (6 h): 141 meq/L
- PL (6 h): 165.6 mg/dL
- RALB (6 h): 2.9 g/dL
- TBIL (6 h): 0.022 mg/dL
- TC (6 h): 85.6 mg/dL
- TG (6 h): 83.5 mg/dL
- TP (6 h): 5.7 g/dL
- gamma-GTP (6 h): 0.8 IU/L
- TERMINAL_BW (9 h): 206.7 g
- Bas (9 h): 0%
- Eos (9 h): 0.6%
- Hb (9 h): 12.7 g/dL
- Ht (9 h): 39%
- Lym (9 h): 75.8%
- MCH (9 h): 20.6 pg
- MCHC (9 h): 32.4%
- MCV (9 h): 63.6 fL
- Mono (9 h): 3.4%
- Neu (9 h): 19.4%
- Plat (9 h): 125.7 x10_4/uL
- RBC (9 h): 613.8 x10_4/ul
- Ret (9 h): 8.6%
- WBC (9 h): 108.2 x10_2/uL
- KIDNEY_L (9 h): 0.9 g
- KIDNEY_R (9 h): 0.9 g
- KIDNEY_TOTAL (9 h): 1.8 g
- LIVER (9 h): 9 g
- A/G (9 h): 1
- ALP (9 h): 1396.4 IU/L
- ALT (9 h): 34.4 IU/L
- AST (9 h): 70.4 IU/L
- BUN (9 h): 9.8 mg/dL
- CRE (9 h): 0.1 mg/dL
- Ca (9 h): 10.6 mg/dL
- Cl (9 h): 104 meq/L
- DBIL (9 h): 0.002 mg/dL
- GLC (9 h): 179.4 mg/dL
- IP (9 h): 10.6 mg/dL
- K (9 h): 4.6 meq/L
- LDH (9 h): 248.8 IU/L
- Na (9 h): 142.5 meq/L
- PL (9 h): 150.4 mg/dL
- RALB (9 h): 2.8 g/dL
- TBIL (9 h): 0.004 mg/dL
- TC (9 h): 79.2 mg/dL
- TG (9 h): 95 mg/dL
- TP (9 h): 5.6 g/dL
- gamma-GTP (9 h): 0.6 IU/L
- TERMINAL_BW (24 h): 218 g
- Bas (24 h): 0%
- Eos (24 h): 0%
- Hb (24 h): 12.8 g/dL
- Ht (24 h): 39.2%
- Lym (24 h): 81.2%
- MCH (24 h): 20 pg
- MCHC (24 h): 32.6%
- MCV (24 h): 61.6 fL
- Mono (24 h): 3%
- Neu (24 h): 14.6%
- Plat (24 h): 124.3 x10_4/uL
- RBC (24 h): 636.8 x10_4/ul
- Ret (24 h): 8.1%
- WBC (24 h): 127.1 x10_2/uL
- KIDNEY_L (24 h): 0.9 g
- KIDNEY_R (24 h): 0.9 g
- KIDNEY_TOTAL (24 h): 1.9 g
- LIVER (24 h): 11.2 g
- A/G (24 h): 1
- ALP (24 h): 1595.4 IU/L
- ALT (24 h): 38.6 IU/L
- AST (24 h): 69.4 IU/L
- BUN (24 h): 16.7 mg/dL
- CRE (24 h): 0.2 mg/dL
- Ca (24 h): 11 mg/dL
- Cl (24 h): 103.1 meq/L
- DBIL (24 h): 0.002 mg/dL
- GLC (24 h): 171.4 mg/dL
- IP (24 h): 7.4 mg/dL
- K (24 h): 4.7 meq/L
- LDH (24 h): 188.8 IU/L
- Na (24 h): 141.6 meq/L
- PL (24 h): 181.2 mg/dL
- RALB (24 h): 2.8 g/dL
- TBIL (24 h): 0 mg/dL
- TC (24 h): 92 mg/dL
- TG (24 h): 209.4 mg/dL
- TP (24 h): 5.5 g/dL
- gamma-GTP (24 h): 0.9 IU/L
